Values after ≈ are worked out from the molar mass of the structure shown.

The source of these data is patent publication US20200370088A1, “KIT AND METHOD FOR ANTIBIOTICS SUSCEPTIBILITY TESTING WITH THE AGAR DILUTION METHOD” ([…].R.L., priority 2019, published 2020).

This test concerns test bacteria. Put plainly: Agar dilution MIC test in 12-well agarized panel (FIG. 2A-E). In kind it is cell-based. As to conditions: for MIC: agar dilution test. As for the experimental part: In alternative embodiments, the MIC in agar is determined by the steps of inoculating a suspension of the bacterium to be tested in a plurality of agarized wells with serial two-fold dilutions of antibiotic. The test bacteria are inoculated on the agarized wells. These inoculated wells are incubated at 35-37° C. overnight. The MIC is defined as the minimum antibiotic concentration that yielded complete inhibition of the bacteria on the wells. The steps are illustrated in FIG. 1 and FIGS. 2a-2e.
In alternative embodiments of methods as provided herein different bacterial strains such as Staphylococcus spp., Enterococcus spp., Enterobactariaceae and corresponding mixtures can be inoculated onto the surface of the agarized wells prepared according to Ref. (1) and containing various concentrations of antibiotic. The inoculated wells are incubated at about 35-37° C. for a fixed time, or in alternative embodiment for about 15-24 hours. Depending on the concentration of the antibiotic, bacterial growth results and is clearly visible on the wells. Generally, in the wells having the high concentration of antibiotic, the antibiotic inhibits the bacterial growth while on the wells having low antibiotic concentrations distinctly visible and typical growth is observed. The lowest antibiotic concentration which serves to inhibit the growth of the bacteria on the wells is defined as the minimal inhibitory concentration (MIC).
With particular reference to the FIGS. 2a-2e, the therein illustrated kit is a 12-well panel containing the antibiotic incorporated into an agar medium in different concentrations, i.e. 11 two-fold dilutions (0.25-256 μg/ml). The procedure used to carry out the test is the agar dilution (AD)method for the antimicrobial susceptibility testing of the antibiotic and is according to the one recommended by CLSI and EUCAST (Ref. 1-4) standards but in a simpler and less time-consuming way and with highly reproducible results.
All wells are inoculated with a standardized microbial suspension.
After incubation in thermostat (as described in the following paragraph, for example at 36±2° C. for 16-20 hours in ambient air) the result is read and interpreted.
Test Procedure • Take a panel from its envelope and leave it at room temperature for 10 min. • Prepare a suspension of the test organism using either the direct colony suspension or growth method. • Standardize the suspension to the density of a McFarland 0.5 standard. • Optimally within 15 min of preparation, dilute the adjusted suspension 1:10 in saline. • Dispense 2 μl of the inoculum solution over the agar surface (*) into each well (the final inoculums concentration should be approximately 10^4 CFU per spot). […]
At the end of the incubation period observe the growth in the wells and establish the MIC, i.e. the lowest concentration of antibiotic that inhibits visible growth.
Disregard single colonies or faint haze caused by the inoculum

`C[C@@H]1O[C@@H]1P(=O)(O)O` [fosfomycin]: the MIC is, setting by setting: (48 h, FIG. 2d) 64 µg/mL (≈ 464 µM); (FIG. 2a) 0.5 µg/mL (≈ 3.62 µM); (FIG. 2b) 16 µg/mL (≈ 116 µM); (FIG. 2c) 2 µg/mL (≈ 14.5 µM). Moreover, the “growth observed in well” value (FIG. 2E, at 1 μg/ml) is “faint haze”.

For orientation: MIC means the lowest concentration that inhibits growth of the organism. A low value points to greater potency.
